Assay results as given in patent US4959362A, “Pharmaceutical compositions containing certain ascorbic acid derivatives useful in the prophylaxis and treatment of disorders of the circulatory system” (Takeda Chemical Industries, Inc., priority 1983, dated 1990).

Columns and labels:
[1] = test system: ischemic convulsive seizure (bilateral common carotid artery ligation); experiment: Inhibition of ischemic seizure due to ligation of bilateral common carotid arteries in SHR rats; type: in vivo, rat (male SHR)
Procedure: Inhibition of ischemic seizure due to ligation of bilateral common carotid arteries in SHR rats
Male SHR rats (22-weeks old, about 360 g) were used. Under light anesthesia with ether, the animals were subjected to midline incision at the neck and the bilateral common carotid arteries were singled, then ligated to cause cerebral ischemia. […] The animals were orally administered with test drugs as a gum arabic suspension 60 minutes before the ligation of the bilateral common carotid arteries.

[2] = test system: mice; experiment: Acute toxicity in mice; type: in vivo; conditions: 300 and 1000 mg/kg orally
Procedure: Male Crj-ICR mice (4-weeks old, 21~26 g) were used. The animals, divided into groups, each consisting of six mice, were administered orally with compound (1-12) at the dosage of 300 or 1000 mg/kg. Then, each group was housed in a cage, and observed for 24 hours. The test drugs were suspended in gum arabic, and administered at the volume of 0.1 ml/10 g.

[3] = Oxidation inhibitory activity: reduction of a stable free radical (DPPH); type: biochemical; conditions: for DPPH reducing activity compared with the test drug: FIG. 1
Procedure: Oxidation inhibitory activity determined with the use of a stable radical: In accordance with the method of M. S. Brois [Nature, 181, 1199, 1958], the activity to reduce a stable free radical, α,α-diphenyl-β-picryl hydrazyl (DPPH), was determined, which was used as an index of the oxidation inhibitory activity. […] Then, 20 minutes later, the absorbance at a wavelength of 517 nm was measured with the use of a spectrophotometer.

[4] = test system: renal disorders due to Fe^3+ -nitrilotriacetate (NTA); experiment: Effects on renal disorders in rats due to Fe^3+ nitrilotriacetate (NTA); type: in vivo, rat (male SLC-Wistar); conditions: 30 mg/kg orally; for Body Weight / Kidney Weight / Occult Blood Test (positive animals/animals) / Protein in urine / Volume of urine: n = 6, last day of the experiment
Procedure: Effects to alleviate renal disorders in rats due to Fe^3+ nitrilotriacetate:
Male SLC-Wistar rats (4-weeks old, 64~85 g) were used. The animals were housed individually in metabolism cages and allowed free access to feed and water. Body weight, volume of urine and protein in urine (BIO-RAD method) were determined every day, and occult blood reaction was also examined (Labstick method). On the last day of the experiment, the kidney was excised and weighed.
The animals were orally administered once daily with test drugs or vehicles thereof (suspension in gum arabic), and, 40~60 minutes later, were injected intraperitoneally with nitrilotriacetate (NTA) or Fe^3+ -NTA. Fe^3+ -NTA was used in a form of mixture (1:4, molar ratio), and the dosages were 5 mg/kg in terms of Fe^3+ for 3 days and successively 10 mg/kg for 5 days.
Test drugs were compound (1-12), vitamin C and vitamin E, and the dosages were all 30 mg/kg.

[5] = test system: ventricular arrhythmias after coronary artery occlusion-reperfusion in rat hearts; experiment: Inhibition of ventricular arrhythmias during coronary artery occlusion-reperfusion in rat hearts; type: in vivo, rat (male SD); conditions: for Extrasystole / Mortality (animals) / Mortality (percentage) / Ventricular fibrillation Incidence (animals) / Ventricular fibrillation Incidence (percentage) / Ventricular tachycardia Incidence (animals) / Ventricular tachycardia Incidence (percentage) / Ventricular fibrillation Duration / Ventricular tachycardia Duration / occurrence of ventricular arrhythmias: oral; for Ventricular fibrillation Duration / Ventricular tachycardia Duration: average ±SEM; for occurrence of ventricular arrhythmias: 20 and 50 mg/kg of compound (1-12), 50 mg/kg of vitamin C or E
Procedure: Action to inhibit ventricular arrhythmias occurred during coronary artery occlusion-reperfusion in rat hearts
Male SD rats (9~13 - weeks old, 250~370 g) were used. The animals were subjected to thoractonomy under artificial respiration while anesthesia was maintained by administering pentobarbital. […] By recording standard limb lead II electrocardiograms, occurrence of ventricular arrhythmias was examined.
The animals were administered, under non-anesthesia, with test drugs as a gum arabic suspension at the dosage of 30 mg/kg at the time of about 90 minutes and of 20 mg/kg at the time of about 45 minutes (total: 50 mg/kg), or at the dosage of 10 mg/kg each (total: 20 mg/kg) at the time of about 90 minutes and about 45 minutes prior to closure of the coronary artery. The results are shown in Table 4 in terms of the total amount of the dosage.
Incidences of ventricular fibrillation and ventricular tachycardia are shown by the percentage of the number of animals presenting the symptoms relative to the number of animals subjected to the test, and the duration of the symptoms was shown in average ±SEM by seconds. Extrasystole is shown by the number of systole/min, and the mortality is shown by the percentage of the number of animals killed relative to the number of animals subjected to the test.

[6] = test system: lipid peroxide formation in rat brain tissue homogenate; experiment: Inhibition of lipid peroxide formation in rat brain tissue homogenate (TBA method); type: biochemical, rat (male SD); conditions: 10^-5 M; for Inhibitory Effect (%) on lipid peroxide formation: n = 3, mean ± standard error, 37° C., 1 hour
Procedure: Activity to inhibit lipid peroxide formation in rat brain tissue homogenate:
Male SD rats (12-weeks old) were subjected to exsanguination under anesthesia with pentobarbital, then the brain was excised. The brain tissue was homogenized in a phosphate buffer solution (pH 7.4) to prepare a 5% homogenate. After incubation of the homogenate at 37° C. for 1 hour, the amount of lipid peroxides formed therein was determined by thiobarbituric acid (TBA) method in accordance with the report of Ohkawa et al. on Analytical Biochemistry 95 351, 1979.
The test drug was added to the 5% homogenate before incubation so as to make the final concentration be 10^-5 M. The activity to inhibit the formation of lipid peroxides was compared with that of the reference group to which was added the solvent (DMSO), and shown by % inhibition.

[7] = 100 mg/kg p.o., within 180 minutes

Compound: CCCCCCCCCCCCCCCCCCOC1=C(O)[C@@H]([C@@H](O)CO)OC1=O [Compound (1-12), 2-O-octadecylascorbic acid]
- delay of appearance of the convulsion ([1]; 100 mg/kg orally, versus vehicle): about 40 minutes
- Ischemic convulsive seizure Time ([1]; 100 mg/kg p.o., n = 5): 199 min
- Ischemic convulsive seizure Incidence (%) [1, 7]: 20%
- Ischemic convulsive seizure Incidence (animals) [1, 7]: 1/5
- recovery from sedation and ptosis [2]: ≤ 3 h
- state observed [2]: the state of sedation and ptosis were observed
- lethality ([2]; 24-hour-observation): no test animals of either group were killed
- concentration at which DPPH is reduced in a manner dependent upon the amount used ([3]; 20 minutes, 0.1 mM DPPH ethanol solution, 517 nm): not less than 10^-5 M
- Effect on renal disorders [4]: renal disorders were alleviated
- occult blood detection [4]: only in half of the test animals, occult blood was detected
- urine volume and urinary protein compared with vehicle [4]: significatly less
- weight of kidney compared with vehicle [4]: significantly less
- Body Weight [4]: 95.5 ± 3.0 g
- Kidney Weight [4]: 56.5 ± 2.0 mg
- Occult Blood Test (positive animals/animals) [4]: 3/6
- Protein in urine [4]: 8.1 ± 2.1 mg/day
- Volume of urine [4]: 7.4 ± 1.3 mL/day
- Extrasystole ([5]; 20 mg/kg total): 3.3 ± 0.8 systole/min
- Mortality (animals) ([5]; 20 mg/kg total): 1/17
- Mortality (percentage) ([5]; 20 mg/kg total): 6 percentage
- Ventricular fibrillation Incidence (animals) ([5]; 20 mg/kg total): 9/17
- Ventricular fibrillation Incidence (percentage) ([5]; 20 mg/kg total): 53 percentage
- Ventricular tachycardia Incidence (animals) ([5]; 20 mg/kg total): 11/17
- Ventricular tachycardia Incidence (percentage) ([5]; 20 mg/kg total): 65 percentage
- Ventricular fibrillation Duration ([5]; 20 mg/kg total): 31.0 ± 28.2 s
- Ventricular tachycardia Duration ([5]; 20 mg/kg total): 10.2 ± 3.2 s
- Extrasystole ([5]; 50 mg/kg total): 1.1 ± 0.3 systole/min
- Mortality (animals) ([5]; 50 mg/kg total): 0/9
- Mortality (percentage) ([5]; 50 mg/kg total): 0 percentage
- Ventricular fibrillation Incidence (animals) ([5]; 50 mg/kg total): 2/9
- Ventricular fibrillation Incidence (percentage) ([5]; 50 mg/kg total): 22 percentage
- Ventricular tachycardia Incidence (animals) ([5]; 50 mg/kg total): 2/9
- Ventricular tachycardia Incidence (percentage) ([5]; 50 mg/kg total): 22 percentage
- Ventricular fibrillation Duration ([5]; 50 mg/kg total): 1.2 ± 0.8 s
- Ventricular tachycardia Duration ([5]; 50 mg/kg total): 3.2 ± 2.6 s
- frequency of occasional PVCs ([5]; 20 and 50 mg/kg): less significantly
- mortality due to VF ([5]; 20 and 50 mg/kg): low
- period of time during which the symptom lasted ([5]; 20 and 50 mg/kg): shortened
- occurrence of ventricular arrhythmias [5]: suppressed significantly and depending on the dosages
- Activity on lipid peroxide formation [6]: higher activity
- Inhibitory Effect (%) on lipid peroxide formation [6]: 88.6 ± 6.8%

Compound: CCCCCCCCCCCCCCCCCCCCCCOC1=C(O)[C@@H]([C@@H](O)CO)OC1=O [Compound (1-14)]
- Inhibitory Effect (%) on lipid peroxide formation [6]: 38.1 ± 16.6%

Compound: CCCCCCCCCCCCCCCCCCOC1=C(O)C(=O)O[C@@H]1[C@@H](O)CO [reference compound]
- Inhibitory Effect (%) on lipid peroxide formation [6]: 45.4 ± 8.7%

Compound: CCCCCCCCCCOC1=C(O)[C@@H]([C@@H](O)CO)OC1=O [Compound (1-4)]
- Inhibitory Effect (%) on lipid peroxide formation [6]: 40.0 ± 1.1%

Compound: CCCCCCCCCCCCOC1=C(O)[C@@H]([C@@H](O)CO)OC1=O [Compound (1-6), 2-O-Dodecyl-L-ascorbic acid]
- Inhibitory Effect (%) on lipid peroxide formation [6]: 55.7 ± 26.5%

Compound: CCCCCCCCCCCCCCCCOC1=C(O)[C@@H]([C@@H](O)CO)OC1=O [Compound (1-10), 2-O-hexadecyl-L-ascorbic acid]
- Inhibitory Effect (%) on lipid peroxide formation [6]: 78.5 ± 11.7%

Compound: CCCCCCCCCCCCCCCOC1=C(O)[C@@H]([C@@H](O)CO)OC1=O [Compound (1-9), 2-O-pentadecyl-L-ascorbic acid]
- Inhibitory Effect (%) on lipid peroxide formation [6]: 100.0 ± 0%

Compound: O=C1O[C@H]([C@@H](O)CO)C(O)=C1O [Vitamin C, ascorbic acid]
- DPPH reducing activity compared with the test drug [3]: activity equal to that of the test drug
- Effect on renal disorders [4]: did not show significant effect for alleviating renal disorders
- Body Weight [4]: 89.2 ± 4.1 g
- Kidney Weight [4]: 64.5 ± 1.7 mg
- Occult Blood Test (positive animals/animals) [4]: 5/6
- Protein in urine [4]: 10.7 ± 2.4 mg/day
- Volume of urine [4]: 10.3 ± 1.7 mL/day
- Extrasystole ([5]; 50 mg/kg total): 5.1 ± 1.0 systole/min
- Mortality (animals) ([5]; 50 mg/kg total): 0/6
- Mortality (percentage) ([5]; 50 mg/kg total): 0 percentage
- Ventricular fibrillation Incidence (animals) ([5]; 50 mg/kg total): 6/6
- Ventricular fibrillation Incidence (percentage) ([5]; 50 mg/kg total): 100 percentage
- Ventricular tachycardia Incidence (animals) ([5]; 50 mg/kg total): 6/6
- Ventricular tachycardia Incidence (percentage) ([5]; 50 mg/kg total): 100 percentage
- Ventricular fibrillation Duration ([5]; 50 mg/kg total): 9.7 ± 2.5 s
- Ventricular tachycardia Duration ([5]; 50 mg/kg total): 19.0 ± 3.0 s
- occurrence of ventricular arrhythmias [5]: no significant effects
- Activity on lipid peroxide formation [6]: promoted the formation of lipid peroxides remarkably
- Inhibitory Effect (%) on lipid peroxide formation [6]: -71.6 ± 36.8%

Compound: CCCCCCCCOC1=C(O)[C@@H]([C@@H](O)CO)OC1=O [Compound (1-2)]
- Inhibitory Effect (%) on lipid peroxide formation [6]: -6.6 ± 3.0%

Compound: CCCCCCCCCCCCCCCCCCCCOC1=C(O)[C@@H]([C@@H](O)CO)OC1=O [Compound (1-13)]
- Inhibitory Effect (%) on lipid peroxide formation [6]: 95.4 ± 4.6%

Compound: CCCCCCCCCCCCCCOC1=C(O)[C@@H]([C@@H](O)CO)OC1=O [Compound (1-8)]
- Inhibitory Effect (%) on lipid peroxide formation [6]: 93.1 ± 5.3%

Compound: Vitamin E [reference compound]
- DPPH reducing activity compared with the test drug [3]: activity equal to that of the test drug
- Effect on renal disorders [4]: substantially the same effects
- occult blood detection [4]: in more than half of the test animals, occult blood test was positive
- Body Weight [4]: 99.3 ± 2.3 g
- Kidney Weight [4]: 54.3 ± 2.7 mg
- Occult Blood Test (positive animals/animals) [4]: 4/6
- Protein in urine [4]: 6.3 ± 1.4 mg/day
- Volume of urine [4]: 9.0 ± 1.0 mL/day
- Extrasystole ([5]; 50 mg/kg total): 7.0 ± 4.1 systole/min
- Mortality (animals) ([5]; 50 mg/kg total): 1/10
- Mortality (percentage) ([5]; 50 mg/kg total): 10 percentage
- Ventricular fibrillation Incidence (animals) ([5]; 50 mg/kg total): 6/10
- Ventricular fibrillation Incidence (percentage) ([5]; 50 mg/kg total): 60 percentage
- Ventricular tachycardia Incidence (animals) ([5]; 50 mg/kg total): 7/10
- Ventricular tachycardia Incidence (percentage) ([5]; 50 mg/kg total): 70 percentage
- Ventricular fibrillation Duration ([5]; 50 mg/kg total): 43.4 ± 36.0 s
- Ventricular tachycardia Duration ([5]; 50 mg/kg total): 22.3 ± 9.7 s
- occurrence of ventricular arrhythmias [5]: no significant effects
- Inhibitory Effect (%) on lipid peroxide formation [6]: 44.9 ± 11.7%
